# Results taken from patent publication US10682317B2 (ZOGENIX INTERNATIONAL LIMITED, priority 2017, dated 2020).
# Values joined by “and” are separate entries in the source; they are usually repeats but may differ in a detail not shown here. Equal entries are not always repeated. Structures can show the parent of a compound that is named as a salt. Where two headings read alike, the source gives them in different places.
# Key:
# [1] = Buffer system selection: stability of pH prototypes; type: physicochemical; details: pH range of 4.5 to 6.5, citrate or citrate-phosphate buffer prototypes
# Protocol: A pH range of 4.5 to 6.5 was investigated during formulation development studies. Various prototypes were prepared with either citrate buffer or citrate-phosphate buffer, depending on target pH. […] Based on initial stability data, a target pH of 5.0 (range: 4.5-5.5) was selected because it minimized the preservatives degradation at long-term and accelerated stability conditions without causing precipitation in product stored at 2-8° C. The buffer components in the drug product formulation are tripotassium citrate and citric acid. Potassium citrate was used instead of sodium citrate to avoid common ion effect with the paraben sodium salts, which may have contributed to precipitation in prototypes containing sodium citrate.
# [2] = Solid state stability and polymorph screening; type: physicochemical
# [3] = Aqueous solubility of the drug substance; details: aqueous solution
# [4] = pH 6.8
# [5] = Particle size of drug substance batches; type: physicochemical
# From the text: Fenfluramine hydrochloride drug substance is non-micronized. The range of particle size parameters obtained from five GMP batches (two clinical batches manufactured by Onyx, and three registration batches manufactured by Aptuit) is listed in Table 1.
# [6] = molecular target: T1, vesicular glutamate transporter, VGLUT2 (Homo sapiens, UniProt Q9P2U8); details: concentrations expected during the ketogenic diet; cited from earlier work
# T1 sequence (Q9P2U8 1-582): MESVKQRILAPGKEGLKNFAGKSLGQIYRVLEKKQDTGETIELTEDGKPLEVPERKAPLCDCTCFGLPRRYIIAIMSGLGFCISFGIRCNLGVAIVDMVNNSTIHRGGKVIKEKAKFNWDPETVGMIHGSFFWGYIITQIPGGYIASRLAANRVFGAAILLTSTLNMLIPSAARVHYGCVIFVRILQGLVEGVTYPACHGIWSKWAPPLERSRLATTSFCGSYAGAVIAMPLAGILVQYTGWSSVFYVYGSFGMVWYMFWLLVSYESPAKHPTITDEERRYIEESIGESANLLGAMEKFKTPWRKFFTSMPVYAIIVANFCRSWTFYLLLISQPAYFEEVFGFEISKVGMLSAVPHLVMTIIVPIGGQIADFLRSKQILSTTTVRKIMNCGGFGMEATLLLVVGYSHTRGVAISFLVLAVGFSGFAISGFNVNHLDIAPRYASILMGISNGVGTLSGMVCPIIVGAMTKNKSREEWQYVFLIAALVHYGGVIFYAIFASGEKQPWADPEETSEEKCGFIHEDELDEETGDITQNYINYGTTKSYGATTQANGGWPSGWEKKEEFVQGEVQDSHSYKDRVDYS
# [7] = system: seizures; assay: Treatment of seizures in epilepsy patients; type: in vivo, human
# From the text: Clemens, in Epilepsy Research (1988) 2:340-343 reported a study on a child suffering pattern sensitivity-induced seizures that were resistant to anticonvulsive treatment.
# This is confirmed, for example, in the article by Ceulemans et al., Epilepsia (2012) 53(7):1131-1139, the contents of which are incorporated herein.
# (§1) The overall anorectic effect of dexfenfluramine is greater than that of […] in experimental animals (Garratini et al. 1988) and humans (Goodall et al. 1992). […] Put differently, a preferred dose is not more than about 30 mg/day, and less than about 1 to about 0.01 mg/kg/day.
# [8] = system: seizures; details: cited from earlier work
# [9] = system: food intake / carbohydrate craving; assay: Anorectic effect, food intake and carbohydrate craving; type: in vivo, human; details: surprisingly low dose, compared to 60-120 mg/day for obesity
# Protocol: as §1
# [10] = system: cardiac fibrosis and pulmonary hypertension; details: marketed use for obesity; cited from earlier work
# [11] = Paraben preservative degradation (hydrolysis); type: physicochemical; details: pH 6
# From the text: The pH of the drug product formulation was optimized to minimize the preservative degradation.
# Like methylparaben, ethylparaben degrades in solution by hydrolysis. The rate increases at higher pH. The pH of the drug product formulation was optimized to minimize the preservative degradation while maintaining adequate solubility, and no significant increase in the preservatives degradation product has been observed in long-term stability studies.
# [12] = cited from earlier work
# [13] = system: food intake / carbohydrate craving; details: cited from earlier work
# [14] = clinical and registration batches 1-5, hydrochloride
smiles,measurement,setting,value
CCNC(C)Cc1cccc(C(F)(F)F)c1 (stereo not shown) [fenfluramine hydrochloride],stability over pH range,[1],stable over the entire range of pH
same,polymorphs observed,"[2]; polymorph screening study, accelerated and long-term stability studies",no other polymorphs have been observed
same,solid state stability,[2]; solid state,chemically and physically stable in the solid state
same,solubility,"[3]; 25 °C, pH 1.7, simulated gastric fluid",~25 mg/mL
same,solubility,"[3]; 25 °C, pH 6.7, aqueous buffer",> 50 mg/mL
same,solubility,"[3]; 37 °C, aqueous buffer",54 to 96 mg/mL
same,time for which the solution is stable,[4],at least 6 months
same,D50,[5]; [14],6.99 μm and 6.79 μm and 8.92 μm and 8.20 μm and 6.16 μm
same,D90,[5]; [14],23.01 μm and 26.25 μm and 32.08 μm and 27.04 μm and 18.96 μm
same,median particle size (D50),[5]; experimental batch,60 μm
same,ninetieth percentile (D90),[5]; experimental batch,250 μm
same,time needed for complete dissolution in the formulation vehicle,[5]; experimental batch vs micronized portions of the same batch,no difference was observed in the time needed for complete dissolution
CC(=O)CC(=O)O [acetoacetate],glutamate transport by VGLUT2,[6],inhibited
"CCNC(C)Cc1cccc(C(F)(F)F)c1 (stereo not shown) [fenfluramine, 3-trifluoromethyl-N-ethylamphetamine]",effect on seizures,"[7]; patients with Dravet syndrome, Lennox-Gastaut syndrome, or Doose syndrome",reduce or eliminate seizures
same,efficacy of low doses on seizures,"[7]; surprisingly low doses, Dravet, Lennox-Gastaut or Doose syndrome patients",efficacious
same,effect on seizures,[8]; child with pattern sensitivity-induced seizures resistant to anticonvulsive treatment,successfully terminated these self-induced seizures
same,number of seizures,"[8]; children with refractory epilepsy, 0.5 to 1 mg/kg/day",reduction in the number of seizures
same,response of seizures,[8]; four cases of self-induced photosensitive seizures,responded to treatment
same,therapeutic benefit,[8]; patients with intractable epilepsy,appeared to be of therapeutic benefit
same,appetite and craving for carbohydrates,[9],effective in reducing appetite and craving for carbohydrates
same,adverse effects associated with use,[10],associated with the onset of cardiac fibrosis and pulmonary hypertension
"COC(=O)c1ccc(O)cc1.[Na] [Methylparaben sodium, sodium methyl p-hydroxybenzoate]",stability against hydrolysis,[11],acceptable stability below pH 6
"CCOC(=O)c1ccc(O)cc1 [ethylparaben, ethyl 4-hydroxybenzoic acid]",solubility of the free acid in water,[12]; 20° C.,0.07%
same,solubility of the free acid in water,[12]; 25° C.,0.08%
same,solubility,[12],0.8 mg/mL
CCN[C@@H](C)Cc1cccc(C(F)(F)F)c1 (racemic) [Dexfenfluramine],carbohydrate craving,"[13]; adults, 30 mg/day",reduction in carbohydrate craving
same,suppression of food intake,[13]; dose of 30 mg,suppressed food intake to the same degree as fenfluramine 60 mg
same,anorectic potency vs racemic mixture fenfluramine,[13]; group of 16 human subjects,twice the anorectic potency
